Assay results: patent publication US8367401B2, “Replication competent hepatitis C virus and methods of use” (Board of Regents, The University of Texas System, priority 1999, dated 2013)

Assays:
[1] = system: Btat2ANeo(SI) replicon (Con1 HCV) in En5-3 cells; experiment: Interferon suppression of SEAP secretion, Btat2ANeo(SI) replicon cell line; type: cell-based, hepatitis C virus
Experimental: (§1) Alkaline phosphatase assay. […] The luminescent signal was read using a TD-20/20 Luminometer (Turner Designs, Inc.). In most time course experiments, the culture medium was replaced every 24 hrs. Thus, the SEAP activity measured in these fluids reflected the daily production of SEAP by the cells.
(§2) Interferon treatment of cell cultures. Selected replicon-bearing cell lines were seeded into 12 well plates. The media was replaced 24 hrs later with fresh, G418 free media containing various concentrations of recombinant interferon-α2B ranging from 0 to 100 units/ml. The medium was subsequently completely removed every 24 hrs, the cells washed, and refed with fresh interferon-containing media. SEAP activity was measured in the media removed from the cells as described above.
(§3) Interferon suppression of HCV RNA replication. […] Recently seeded cell cultures were fed with media containing various concentrations of recombinant interferon-α2B ranging from 0 to 100 units/ml. The medium was subsequently removed completely at 24 hr intervals, and the cells were washed thoroughly and refed with fresh interferon-containing media. […] The decline in intracellular RNA preceded the decreases in SEAP secretion by approximately 24 hrs, most likely reflecting the kinetic delay in tat signaling of SEAP secretion.

[2] = system: Ntat2ANeo(RG) replicon (HCV-N) in En5-3 cells; experiment: Interferon suppression of SEAP secretion, Ntat2ANeo(RG) replicon cell line; type: cell-based, hepatitis C virus
Experimental: as §1, §2, §3

Et2AN cell line = experiment: SEAP secretion by Et2AN control cell line (tat2ANeo under EMCV IRES, no replicon); type: cell-based
Description: as §1
This permits serial measurements of the kinetics of RNA amplification in single cultures of cells (FIG. 21). One potential drawback of this system is that suppression of SEAP activity by candidate antiviral compounds could result from inhibition of the activity of either the 2A protease or tat, or even (as with other published dicistronic HCV replicons) the EMCV IRES. To address this issue, we established a stably transformed cell line that constitutively expresses the tat2ANeo polyprotein under the translational control of the EMCV IRES. This cell line (Et2AN) was established by transfection of pEt2AN DNA (FIG. 16) into En5-3 cells, followed by selection with G418.

En5-3 cells = experiment: SEAP expression from En5-3 cells without replicon; type: cell-based; settings: interferon treatment
Description: FIG. 22. Suppression of HCV replicon amplification by interferon-α2b. (A) SEAP activity secreted from cells supporting replication of Btat2ANeo(SI) over successive 24 hr intervals following addition of interferon to the medium. (B) SEAP secretion from Ntat2ANeo(RG) cells. Interferon concentrations were: (*) 100 units/ml; (X) 10 units/ml; (▴) 1 unit/ml; (▪) no interferon. SEAP expression from En5-3 cells without interferon treatment was also shown (♦). SEAP expression from En5-3 cells was not affected by interferon treatment.
as §1

[3] = highest concentration of interferon tested, 100 units/ml
[4] = interferon 0 to 100 units/ml, media replaced at 24 hr intervals, stable G418 resistant cell clone

In the case of interferon-α2b, the cellular cytotoxicity ([1]; 100 units/ml) is reported as “absence of demonstrable cellular cytotoxicity”, the “SEAP expression over time” value [1, 3] is reported as “SEAP expression declined over time” and the SEAP secretion [1, 4] is reported as “dose-dependent inhibition of SEAP secretion”. For the same substance, the cellular cytotoxicity ([2]; 100 units/ml) was “absence of demonstrable cellular cytotoxicity”, the “SEAP expression over time” value [2, 3] was “SEAP expression declined over time” and the SEAP secretion [2, 4] was “dose-dependent inhibition of SEAP secretion”. The “suppression of the secretion of SEAP” value (Et2AN cell line; comparable concentrations of interferon) was “no suppression”, the nonspecific toxicity (Et2AN cell line; concentrations of interferon tested) was “absence of nonspecific toxicity” and the SEAP expression (En5-3 cells) was “not affected”.
